According to US9095537B2, “Therapy of cancer based on targeting adaptive, innate and/or regulatory component of the immune response” (priority 2006, dated 2015):
Like-named read-outs stand apart in the source and are kept apart here.

Columns and labels:
TC-1 cells [1] = type: in vivo, C57BL/6 mice; conditions: for survival percentage: TLR ligand given i.v. with 50 ug CyaA-E7 on day 25, pU and CpGs complexed with DOTAP, survival on day 100; for effect on tumor growth of TLR ligand alone: TLR ligand alone without CyaA-E7, day 25; for tumor growth after CTX alone: CTX 2.5 mg i.p. alone, day 24; for mice that totally eradicated their tumors: low dose CTX (2.5 mg i.p.) day 24, 24 h before 50 ug CyaA-E7; for enhancement of the effect of CyaA-E7 by DOX: DOX day 24, intra-tumorally or intravenously, CyaA-E7 day 25; for increase in tumor regression: TLR ligand given with CyaA-E7 on day 25, versus CyaA-E7 alone
Procedure: (§1) Specific pathogen-free 5-week-old female C57BL/6 mice were purchased from Charles River (L'Arbresle, France) and were kept in the Pasteur Institute animal facilities under pathogen-free conditions with water and food ad libitum. C57BL/6-RAG1^−/− mice were obtained from the Jackson Laboratory, USA. Experiments involving animals were conducted according to the institutional guidelines for animal care.
TC-1 cells expressing HPV16-E6 and HPV16-E7 proteins derived from primary mouse lung epithelial cells were obtained from the American Type Culture Collection (LGC Promochem, Molsheim, France) (14). EL4-E7 cells, a mouse lymphoma expressing HPV16-E7 (15). Cells were maintained in RPMI 1640 with GlutaMAX supplemented with 10% heat-inactivated fetal calf serum, 100 units/ml penicillin, 100 μg/ml streptomycin, 0.4 mg/ml geneticin and 5×10^−5 mol/12-mercaptoethanol (Life Technologies, Cergy-Pontoise, France).
(§2) Tumor cells lines (5×10^5 TC-1 cells or 4×10^6 EL4-E7 cells) were inoculated into the shaved left back of C57BL/6 mice in 200 μl volume of PBS. Tumor size, presented as the average of two perpendicular diameters (millimeters), was measured at regular intervals.
CpG ODNs (Type A, CpG 2216: 5′-[…]-3′ (SEQ ID NO: 6); Type B, CpG 1826: 5′-[…]-3′ (SEQ ID NO: 7)) were synthesized by Proligo (Paris, France). Boldface nucleotides correspond to phosphorothioate backbone. Polyuridine (pU) was purchased from Sigma (Steinheim, Germany), R848 from PharmaTech (Shanghai, China) and polyinosinic-polycytidylic acid (PIC) from Invivogen (San Diego, Calif., USA). Thirty μg of CpG ODNs or pU were diluted in 50 μl of Optimen medium (Gibco, Grand Island, N.Y., USA) and mixed with 60 μg of DOTAP (Roche, Mannheim, Germany) diluted in 100 μl of Optimen. The rest of the reagents were diluted in PBS before injection. Cyclophosphamide (CTX) (Sigma, Steinheim, Germany) and doxorubicin (DOX) (Calbiochem, La Jolla, Calif., USA) were diluted respectively in PBS and in sterile water before injection. The different antigenic formulations and adjuvants were injected simultaneously except chemotherapeutic agents that were given 24 h before vaccine. Intravenous administrations were performed by retroorbital injection in a volume of 200 μl, intratumoral administrations were done by injection in a volume of 50 μl and subcutaneous administration were performed in 200 μl.
Tumor growth data were analyzed by non-linear mixed effect models using Monolix software (http://www.math.u-psud.fr/˜lavielle/monolix/). Mean diameters of tumors over time were fitted using the model described in (17) and treatments were compared using the Likelihood Ratio test. Kaplan-Meier plots were used to analyzed survival, and a log rank test was used to examine statistical significance of differences in the survival curves using Prism software (GraphPad Software, Inc. San Diego, USA). Data from in vivo CTL and tetramer staining were compared by ANOVA followed by Dunnett posttest. p values less than 0.05 were considered to be statistically significant.

[2] = test system: E749-57 peptide-pulsed splenocytes; experiment: In vivo killing assay (in vivo CTL); design: species or system C57BL/6 mice; conditions: CTX 24 h before CyaA-E7, tumor-bearing mice day 25
Procedure: FIG. 8. Analysis of tumor specific immune response in control and tumor-bearing mice after different treatments. […] Twenty-five days later, control and tumor-bearing mice were injected with either 50 μg of control CyaA or of CyaA-E7, with PBS or with 30 μg of CpG-B or pU/DOTAP, 25 μg of PIC, 50 μg of R848, 2.5 mg of CTX (24 h before) or with CTX and CpG-B/DOTAP. Percentage of CD8^+ tetramer^+ cells in control (A) and in tumor-bearing mice (B). At day 7 after treatment, mice were sacrificed and the percentage of tetramer positive cells was analyzed by flow cytometry. In vivo CTL in control (C) and in tumor-bearing mice (D). […] Twenty-four hours later, spleens were removed and single-cell suspensions were analyzed by flow cytometry to determine the ratio of CFSE^high to CFSE^low cells. […] In vivo cytolytic activity was low but detected (E and F).
Naïve spleen cells were pulsed for 30 min with 9 μM E749-57 peptide at 37° C. […] Twenty-four hours later, spleens were removed and single-cells suspensions were analyzed by flow cytometry to determine the ratio of CFSE^high to CFSE^low cells. The percentage of specific lysis was calculated as follow: percent-specific lysis=100−(100×(% CFSE^highimmunized/% CFSE^low immunized)/(% CFSE^high control/% CFSE^low control)).

TC-1 cells [3] = conditions: CTX 2.5 mg i.p. day 24; log-rank p=0.22 vs PBS
Procedure: as §1, §2

[4] = test system: T regulatory cells, myeloid suppressor cells, tumor-specific CD8+ T cells and NK cells; experiment: Flow cytometric analysis of immune cells in spleen, draining lymph nodes and tumor after tritherapy; type: in vivo, C57BL/6 mice
Procedure: FIG. 9. Changes in immune cells after tritherapy on day 25. […] Groups of mice were sacrificed before treatment (day 0), 24 hour after CTX alone (day 1) or on days 4, 7 or 11 after tritherapy administration. Spleen, tumor draining lymph nodes and tumor were excised, ground to prepare the cell suspensions, stained and analyzed by flow cytometry. Pooled data of two experiments are shown (n=4-6 mice). Bars represent mean values and the error bars correspond to standard error of the mean. *<0.05**<0.01. A) Percentage of CD4^+ cells that express CD25 and FoxP3. B) Percentage of CD4^+ cells that are CD25^− and FoxP3^+. C) Percentage of CD4^+ cells that express FoxP3. D) Percentage of CD8^+ cells that are tetramer^+ and CD44^+. E) Percentage of CD11c^+ cells. F) Percentage of CD11b^+ cells. G) Percentage of GR1^+ cells. H) Percentage of CD11b^+GR1^+ positive cells.
FIG. 11. Phenotype of myeloid cells induced by tritherapy and by tumor growth. […] Tritherapy treated mice received on day 24, 2.5 mg CTX i.p and 24 h later, 50 μg CyaA-E7 and 30 μg CpG-B/DOTAP. PBS treated mice received 200 μl of PBS on day 25. […] Spleens were excised, ground to prepare the cell suspensions, stained and analyzed by flow cytometry. […]
FACScalibur (Becton Dickinson, Franklin Lakes, N.J., USA) was used for flow cytometry and events were analyzed with CELLQuest software (Becton Dickinson, Franklin Lakes, N.J., USA).

5′-GGGGGACGATCGTCGGGGGG-3′ [CpG-A]
survival percentage (TC-1 cells [1]): 58%

5′-TCCATGACGTTCCTGACGTT-3′ [CpG-B]
effect on tumor growth of TLR ligand alone (TC-1 cells [1]): none of these TLR ligands administered alone had any effect on the tumor growth
survival percentage (TC-1 cells [1]): 50%

O=P1(N(CCCl)CCCl)NCCCO1 (centres unmarked) [CTX, Cyclophosphamide]
immune response induced by CyaA-E7 [2]: did not enhance the immune response induced by CyaA-E7
tumor growth delay by CTX alone in RAG1-/- mice (TC-1 cells [3]): not observed
antitumor efficacy of combined CTX and CyaA-E7 at higher CTX dose (TC-1 cells [1]; 300 mg/kg versus 100 mg/kg CTX i.p. day 24, CyaA-E7 day 25, log-rank p=0.95): not improved
tumor growth after CTX alone (TC-1 cells [1]): significantly delayed tumor growth but this effect was transient and was followed by tumor relapse
tumor growth after CTX alone (TC-1 cells [1]; listed as cyclophosphamide): could transiently control tumor growth but was not able to induce the complete eradication
tumor growth after CTX plus CyaA-E7 (TC-1 cells [1]; low dose CTX 24 h before CyaA-E7, day 24/25): delayed growth of all tumors
mice that totally eradicated their tumors (TC-1 cells [1]): 58%
mice that totally eradicated their tumors (TC-1 cells [1]; listed as cyclophosphamide): around 60%
percentage of CD25+FoxP3+/CD4+ in tumor-infiltrated lymphocytes ([4]; four days after administration of cyclophosphamide, from around 50%): below 30%
lymphodepletion ([4]; spleen and lymph node, tumor-bearing mice, CTX 2.5 mg i.p. day 24): transient lymphodepletion in spleen and lymph node that reverted by day 7

COc1cccc2c1C(=O)c1c(O)c3c(c(O)c1C2=O)C[C@@](O)(C(=O)CO)C[C@@H]3O[C@H]1C[C@H](N)[C@H](O)[C@H](C)O1 [DOX, Doxorubicin]
enhancement of the effect of CyaA-E7 by DOX (TC-1 cells [1]): did not enhance the effect of CyaA-E7
enhancement of the effect of CyaA-E7 by DOX (TC-1 cells [1]; listed as doxorubicin): had no effect

polyinosinic-polycytidylic acid [PIC]
effect on tumor growth of TLR ligand alone (TC-1 cells [1]): none of these TLR ligands administered alone had any effect on the tumor growth
survival percentage (TC-1 cells [1]): 41%
increase in tumor regression (TC-1 cells [1]): significant increase in tumor regression

polyuridine [pU]
survival percentage (TC-1 cells [1]): 41%
increase in tumor regression (TC-1 cells [1]): significant increase in tumor regression
